Tests used:
Experiment in all cases: cAMP accumulation
Format in all cases: cell-based
GHRHR F82A = biological target: T1, GHRHR F82A (Homo sapiens, UniProt Q02643, F82A); details: Table S2, mean ± SEM
T1 construct: expressed in transfected cells; host or cells: HEK293T
Protocol: (§1) GHRH-stimulated cAMP accumulation was measured by a LANCE Ultra cAMP kit (PerkinElmer). Briefly, HEK293T cells (24 h after transfection with SV1 or GHRHR) or prostate cancer cells were digested by 0.2% (wt/vol) EDTA and washed once with Dulbecco’s phosphate-buffered saline (PBS). Cells were then resuspended with stimulation buffer (Hanks’ balanced salt solution [HBSS] supplemented with 5 mM HEPES, 0.5 mM IBMX, and 0.1% [wt/vol] bovine serum albumin [BSA], pH 7.4) to a density of 0.6 million cells per milliliter and added to 384-well white plates (3,000 cells per well). […] The reaction was stopped by adding 5 μL Eu-cAMP tracer and 5 μL ULight-anti-cAMP. After 1 h RT incubation, TR-FRET signals (excitation: 320 nm, emission: 615 and 665 nm) were measured by an Envision plate reader (PerkinElmer). cAMP concentrations were interpolated by a standard curve.
(§2) All functional study data were analyzed using Prism 7 (GraphPad) and presented as means ± SEM from at least three independent experiments. Concentration-response curves were evaluated with a three-parameter logistic equation. The significance was determined with either two-tailed Student’s t test or one-way ANOVA, and P < 0.05 is considered statistically significant.
(§3) Table S2. Effects of residue mutation or truncation in the ECD of GHRHR on GHRH-induced cAMP […]
(§4) Mutant pEC50 Emax (% WT GHRHR) expression ΔLog (τ/KA) […]
(§5) cAMP accumulation data were analyzed using a three-parameter logistic equation to determine pEC50 and Emax values. pEC50 is the negative logarithm of the molar concentration of agonist that induced half the maximal response. Emax for mutants is expressed as a percentage of the WT GHRHR. Data were analyzed by nonlinear regression using the operational model equation to determine t he logR values (logτ/KA, i.e., logarithm of the transduction ratio). τ is the effi cacy value of the agonist and was corrected by cell surface expression of the receptor. KA is dissociation constant. Changes in transduction ratio (ΔlogR) were calculated to determine the relative effectiveness of the mutants. All values are means ± S.E.M. of at le ast three ind ep en dent experiments (n = 3-5) conducted in quadruplicate. Statistical analysis was carried out by comparing the control responses in the WT GHRHR. **, P < 0.01 and ***, P < 0.001, determined by one-way

GHRHR F85A = biological target: T2, GHRHR F85A (Homo sapiens, UniProt Q02643, F85A); details: Table S2, mean ± SEM
T2 construct: expressed in transfected cells; host or cells: HEK293T
Protocol: as §1, §2, §3, §4, §5

GHRHR L34A = biological target: T3, GHRHR L34A (Homo sapiens, UniProt Q02643, L34A); details: Table S2, mean ± SEM
T3 construct: expressed in transfected cells; host or cells: HEK293T
Protocol: as §1, §2, §3, §4, §5

[1] = biological target: T4, GHRHR L34A-L62A-F82A-F85A (Homo sapiens, UniProt Q02643, F82A/F85A/L34A/L62A); details: Table S2, mean ± SEM
T4 construct: expressed in transfected cells; host or cells: HEK293T
Protocol: as §1, §2, §3, §4, §5

GHRHR L62A = biological target: T5, GHRHR L62A (Homo sapiens, UniProt Q02643, L62A); details: Table S2, mean ± SEM
T5 construct: expressed in transfected cells; host or cells: HEK293T
Protocol: as §1, §2, §3, §4, §5

GHRHR Δ102 = biological target: T6, GHRHR Δ102 (Homo sapiens, UniProt Q02643); details: Table S2, mean ± SEM
T6 construct: expressed in transfected cells; host or cells: HEK293T
Protocol: as §1, §2, §3, §4, §5

GHRHR Δ112 = biological target: T7, GHRHR Δ112 (Homo sapiens, UniProt Q02643); details: Table S2, mean ± SEM
T7 construct: expressed in transfected cells; host or cells: HEK293T
Protocol: as §1, §2, §3, §4, §5

GHRHR Δ42 = biological target: T8, GHRHR Δ42 (Homo sapiens, UniProt Q02643); details: Table S2, mean ± SEM
T8 construct: expressed in transfected cells; host or cells: HEK293T
Protocol: as §1, §2, §3, §4, §5

GHRHR Δ52 = biological target: T9, GHRHR Δ52 (Homo sapiens, UniProt Q02643); details: Table S2, mean ± SEM
T9 construct: expressed in transfected cells; host or cells: HEK293T
Protocol: as §1, §2, §3, §4, §5

GHRHR Δ62 = biological target: T10, GHRHR Δ62 (Homo sapiens, UniProt Q02643); details: Table S2, mean ± SEM
T10 construct: expressed in transfected cells; host or cells: HEK293T
Protocol: as §1, §2, §3, §4, §5

GHRHR Δ72 = biological target: T11, GHRHR Δ72 (Homo sapiens, UniProt Q02643); details: Table S2, mean ± SEM
T11 construct: expressed in transfected cells; host or cells: HEK293T
Protocol: as §1, §2, §3, §4, §5

GHRHR Δ82 = biological target: T12, GHRHR Δ82 (Homo sapiens, UniProt Q02643); details: Table S2, mean ± SEM
T12 construct: expressed in transfected cells; host or cells: HEK293T
Protocol: as §1, §2, §3, §4, §5

GHRHR Δ89 = biological target: T13, GHRHR Δ89 (Homo sapiens, UniProt Q02643)
T13 construct: expressed in transfected cells; host or cells: HEK293T
T13 sequence (Q02643 90-423): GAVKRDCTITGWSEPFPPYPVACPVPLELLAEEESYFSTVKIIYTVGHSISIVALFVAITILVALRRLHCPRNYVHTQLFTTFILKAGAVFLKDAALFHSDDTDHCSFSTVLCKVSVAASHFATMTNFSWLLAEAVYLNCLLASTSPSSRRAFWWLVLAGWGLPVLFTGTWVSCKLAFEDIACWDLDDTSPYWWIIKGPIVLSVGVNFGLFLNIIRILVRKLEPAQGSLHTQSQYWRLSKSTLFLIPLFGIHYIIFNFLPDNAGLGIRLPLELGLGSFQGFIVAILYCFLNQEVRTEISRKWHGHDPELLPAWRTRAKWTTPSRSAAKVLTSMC
Protocol: as §1, §2, §3, §4, §5

GHRHR Δ92 = biological target: T14, GHRHR Δ92 (Homo sapiens, UniProt Q02643); details: Table S2, mean ± SEM
T14 construct: expressed in transfected cells; host or cells: HEK293T
Protocol: as §1, §2, §3, §4, §5

[2] = HEK-293T, HEK293T, n = 3-5 in quadruplicate
[3] = operational model, τ corrected by cell surface expression, relative to WT GHRHR

T8 sequence (Q02643 43-423 limits assumed, stated change not applied): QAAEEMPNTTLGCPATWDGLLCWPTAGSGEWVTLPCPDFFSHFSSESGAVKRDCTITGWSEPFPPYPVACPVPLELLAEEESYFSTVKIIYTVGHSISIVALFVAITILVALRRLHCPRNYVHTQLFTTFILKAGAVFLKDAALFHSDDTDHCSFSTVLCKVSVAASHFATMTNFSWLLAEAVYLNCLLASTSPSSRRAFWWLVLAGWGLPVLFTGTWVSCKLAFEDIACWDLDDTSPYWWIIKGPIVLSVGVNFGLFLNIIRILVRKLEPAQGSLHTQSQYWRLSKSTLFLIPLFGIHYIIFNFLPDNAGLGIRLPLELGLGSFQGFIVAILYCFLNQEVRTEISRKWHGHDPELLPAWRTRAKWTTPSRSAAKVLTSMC
T5 sequence (Q02643 23-423 L62A): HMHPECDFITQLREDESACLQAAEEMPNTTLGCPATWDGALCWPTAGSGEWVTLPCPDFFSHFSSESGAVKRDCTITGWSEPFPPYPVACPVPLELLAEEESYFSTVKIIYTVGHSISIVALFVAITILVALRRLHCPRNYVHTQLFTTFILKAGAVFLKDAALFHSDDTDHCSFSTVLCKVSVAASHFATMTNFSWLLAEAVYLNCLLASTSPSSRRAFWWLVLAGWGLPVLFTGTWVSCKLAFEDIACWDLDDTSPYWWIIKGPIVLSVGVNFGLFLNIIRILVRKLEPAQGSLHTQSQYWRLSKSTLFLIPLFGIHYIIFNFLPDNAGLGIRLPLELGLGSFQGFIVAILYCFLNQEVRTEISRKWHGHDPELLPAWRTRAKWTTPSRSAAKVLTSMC
T9 sequence (Q02643 53-423 limits assumed, stated change not applied): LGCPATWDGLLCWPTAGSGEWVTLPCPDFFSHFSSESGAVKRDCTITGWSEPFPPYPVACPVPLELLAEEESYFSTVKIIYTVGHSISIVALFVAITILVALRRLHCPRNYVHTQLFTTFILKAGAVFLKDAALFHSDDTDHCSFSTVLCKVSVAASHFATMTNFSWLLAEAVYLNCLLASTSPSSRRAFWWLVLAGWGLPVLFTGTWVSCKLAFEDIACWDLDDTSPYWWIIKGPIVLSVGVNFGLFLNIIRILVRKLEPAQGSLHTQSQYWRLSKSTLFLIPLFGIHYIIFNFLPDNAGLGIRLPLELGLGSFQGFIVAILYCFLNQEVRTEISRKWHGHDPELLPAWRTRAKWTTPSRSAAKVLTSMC
T4 sequence (Q02643 23-423 L34A/L62A/F82A/F85A): as the sequence (Q02643 23-423 L62A) above, with L12A, F60A, F63A counted along it
T12 sequence (Q02643 83-423 limits assumed, stated change not applied): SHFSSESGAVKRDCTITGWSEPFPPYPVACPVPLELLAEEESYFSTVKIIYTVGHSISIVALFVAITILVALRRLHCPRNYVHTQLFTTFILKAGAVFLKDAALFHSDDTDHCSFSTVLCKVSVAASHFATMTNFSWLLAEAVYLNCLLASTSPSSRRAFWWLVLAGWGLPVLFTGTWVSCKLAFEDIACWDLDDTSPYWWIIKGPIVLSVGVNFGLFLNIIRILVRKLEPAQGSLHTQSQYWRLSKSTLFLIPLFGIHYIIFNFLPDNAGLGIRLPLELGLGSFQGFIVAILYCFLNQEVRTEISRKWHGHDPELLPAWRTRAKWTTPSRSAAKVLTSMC
T1 sequence (Q02643 23-423 F82A): as the sequence (Q02643 23-423 L62A) above, with A40L, F60A counted along it
T2 sequence (Q02643 23-423 F85A): as the sequence (Q02643 23-423 L62A) above, with A40L, F63A counted along it
T11 sequence (Q02643 73-423 limits assumed, stated change not applied): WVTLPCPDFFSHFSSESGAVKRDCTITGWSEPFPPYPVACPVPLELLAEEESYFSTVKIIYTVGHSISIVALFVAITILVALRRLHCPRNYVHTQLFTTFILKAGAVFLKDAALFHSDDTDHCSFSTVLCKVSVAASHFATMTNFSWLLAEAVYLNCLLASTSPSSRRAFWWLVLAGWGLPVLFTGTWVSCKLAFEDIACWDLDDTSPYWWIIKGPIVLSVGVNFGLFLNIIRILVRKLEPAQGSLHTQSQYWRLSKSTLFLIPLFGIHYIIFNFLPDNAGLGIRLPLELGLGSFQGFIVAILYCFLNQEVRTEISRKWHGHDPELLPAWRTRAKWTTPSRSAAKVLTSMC
T3 sequence (Q02643 23-423 L34A): as the sequence (Q02643 23-423 L62A) above, with L12A, A40L counted along it
T10 sequence (Q02643 63-423 limits assumed, stated change not applied): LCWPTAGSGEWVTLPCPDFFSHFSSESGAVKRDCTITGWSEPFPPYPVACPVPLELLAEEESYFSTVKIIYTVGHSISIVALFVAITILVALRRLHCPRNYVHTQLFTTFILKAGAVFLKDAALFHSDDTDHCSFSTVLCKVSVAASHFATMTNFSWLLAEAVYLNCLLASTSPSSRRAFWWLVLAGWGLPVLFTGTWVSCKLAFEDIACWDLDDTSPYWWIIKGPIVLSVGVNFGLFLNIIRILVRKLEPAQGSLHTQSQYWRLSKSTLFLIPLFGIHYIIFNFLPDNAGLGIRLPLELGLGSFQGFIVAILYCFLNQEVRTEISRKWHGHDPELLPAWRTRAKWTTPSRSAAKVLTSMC

CC[C@H](C)[C@H](NC(=O)[C@H](C)NC(=O)[C@H](CC(=O)O)NC(=O)[C@H](C)NC(=O)[C@@H](N)Cc1ccc(O)cc1)C(=O)N[C@@H](Cc1ccccc1)C(=O)N[C@H](C(=O)N[C@@H](CC(N)=O)C(=O)N[C@@H](CO)C(=O)N[C@@H](Cc1ccc(O)cc1)C(=O)N[C@@H](CCCNC(=N)N)C(=O)N[C@@H](CCCCN)C(=O)N[C@H](C(=O)N[C@@H](CC(C)C)C(=O)NCC(=O)N[C@@H](CCC(N)=O)C(=O)N[C@@H](CC(C)C)C(=O)N[C@@H](CO)C(=O)N[C@@H](C)C(=O)N[C@@H](CCCNC(=N)N)C(=O)N[C@@H](CCCCN)C(=O)N[C@@H](CC(C)C)C(=O)N[C@@H](CC(C)C)C(=O)N[C@@H](CCC(N)=O)C(=O)N[C@@H](CC(=O)O)C(=O)N[C@H](C(=O)N[C@@H](CCSC)C(=O)N[C@@H](CO)C(=O)N[C@@H](CCCNC(=N)N)C(=O)N[C@@H](CCC(N)=O)C(=O)N[C@@H](CCC(N)=O)C(=O)NCC(=O)N[C@@H](CCC(=O)O)C(=O)N[C@@H](CO)C(=O)N[C@@H](CC(N)=O)C(=O)N[C@@H](CCC(N)=O)C(=O)N[C@@H](CCC(=O)O)C(=O)N[C@@H](CCCNC(=N)N)C(=O)NCC(=O)N[C@@H](C)C(=O)N[C@@H](CCCNC(=N)N)C(=O)N[C@@H](C)C(=O)N[C@@H](CCCNC(=N)N)C(=O)N[C@@H](CC(C)C)C(N)=O)[C@@H](C)CC)C(C)C)[C@@H](C)O [GHRH, growth hormone–releasing hormone]
Emax (GHRHR F82A; [2]): 99.8 ± 1.36%
ΔLog (τ/KA) (GHRHR F82A; [3]): -0.53 ± 0.05
Emax (GHRHR F85A; [2]): 100 ± 1.69%
ΔLog (τ/KA) (GHRHR F85A; [3]): -0.27 ± 0.04
Emax (GHRHR L34A; [2]): 101 ± 2.23%
ΔLog (τ/KA) (GHRHR L34A; [3]): -0.78 ± 0.06
Emax [1, 2]: 105 ± 5.52%
ΔLog (τ/KA) [1, 3]: -4.07 ± 0.04
Emax (GHRHR L62A; [2]): 98 ± 2%
ΔLog (τ/KA) (GHRHR L62A; [3]): -1.03 ± 0.04
Emax (GHRHR Δ102; [2]): 107 ± 2.15%
ΔLog (τ/KA) (GHRHR Δ102; [3]): -3.55 ± 0.02
Emax (GHRHR Δ112; [2]): 106 ± 2.34%
ΔLog (τ/KA) (GHRHR Δ112; [3]): -3.65 ± 0.02
Emax (GHRHR Δ42; [2]): 104 ± 1.53%
ΔLog (τ/KA) (GHRHR Δ42; [3]): -2.86 ± 0.02
Emax (GHRHR Δ52; [2]): 106 ± 1.62%
ΔLog (τ/KA) (GHRHR Δ52; [3]): -2.83 ± 0.03
Emax (GHRHR Δ62; [2]): 104 ± 2.19%
ΔLog (τ/KA) (GHRHR Δ62; [3]): -3.05 ± 0.03
Emax (GHRHR Δ72; [2]): 104 ± 2.57%
ΔLog (τ/KA) (GHRHR Δ72; [3]): -2.98 ± 0.04
Emax (GHRHR Δ82; [2]): 104 ± 2.51%
ΔLog (τ/KA) (GHRHR Δ82; [3]): -3.14 ± 0.03
cAMP responses after removal of the N-terminal 89 residues (GHRHR Δ89; HEK293T, Fig. 1B): diminished cAMP responses
Emax (GHRHR Δ89; HEK-293T, Table S2, HEK293T, mean ± SEM, n = 3-5 in quadruplicate): 106 ± 2.48%
ΔLog (τ/KA) (GHRHR Δ89; Table S2, operational model, τ corrected by cell surface expression, relative to WT GHRHR, mean ± SEM): -3.28 ± 0.03
Emax (GHRHR Δ92; [2]): 106 ± 2.38%
ΔLog (τ/KA) (GHRHR Δ92; [3]): -3.78 ± 0.03

From article PMC8501799, “Constitutive signal bias mediated by the human GHRHR splice variant 1” (Proceedings of the National Academy of Sciences of the …, 2021)
